Laboratory results taken from EP0200607A1, “Surfactant chlorhexidine salts and compositions” (PIERRE FABRE COSMETIQUE, priority 1985, dated 1986).

Legend:
[1] = system: Pseudomonas aeruginosa A 22; test: Antiseptic activity by dilution in liquid medium (MIC and MBC), with anionic surfactants; type: cell-based; conditions: Pseudomonas aeruginosa A 22, 10^6 germes/ml
From the text: de dilutions en milieu liquide, selon Peterson, Lance R., Denny, Aiken E., Gerding, Dale N. and Hall, Wendell H. :"determination of tolerance to antibiotic bactericidal on activity on Kivby-Baver susceptibility plates Am.J.Clin.Pathol. 74 : 645-650,1980.
Le but de la méthode est de déterminer la plus petite quantité d'un produit X qui exerce sur 10^6 cellules d'une flore bactérienne donnée une activité antiseptique de type bactériostatique ou bactéricide.
La méthode de dilution en milieu liquide permet de déterminer la CMI (concentration minimale inhibitrice-bacté- riostase) et la CMB (concentration minimale léthale-bactéricidie).
• . pipettes de 1 ml graduées au 1/100 en polystyrène cristal stériles, . pipettes Pasteur stériles, • . flacons en verre stériles de 30 ml, 100 ml, • . tubes à essai en verre PYREX stériles 65 x 13 mm, 160 x 16 mm, 25 x 200 mm et 18 x 180 mm, • . boîtes de Pétri, polystyrène cristal- stériles de 90 mm de diamètre, • . lumétron, colorimètre réf.401, • les milieux de culture liquides et gélosés sont adaptés à la croissance de l'espèce de microorganisme en test Pseudomonas aeruginosa. Un témoin de fertilité des milieux liquides et gélosés est réalisé à chaque expérimentation.
Les différents produits testés sont des solutions aqueuses d'alkyl éthoxycarboxylate de chlorhexidine (3%) et contenant un pourcentage variable de tensioactifs anioniques. Les solutions mères sont des dilutions au 1/10e des solutions précédentes.
Pseudomonas aeruginosa est ensemencé en stries sur une pente de gélose Tryptone Soya (CM 131 OXOID). On incube de 18 à 24 Heures à 32-35°C.
Pour le Pseudomonas aeruginosa, une transmission de 90 % représente une valeur de 2-10^8 germes/ml donc une dilution au 1/100e est nécessaire.
On prépare sur un portoir une série de tubes à hémolyse 65 x 13 mm stériles.
Chaque tube reçoit 1 ml de milieu de culture liquide dont la composition est adaptée à la croissance du germe (bouillon BN pour Pseudomonas aéruginosa).
Le tube reçoit 1 ml de la solution mère du produit à analyser. On homogénéise puis effectue des passages successifs au 1/2 jusqu'au dernier tube. Le volume dans tous les tubes est alors de 1 ml.
Toutes les dilutions sont ensemencées avec 1 ml de milieu de culture titrant […] par ml. Dans chaque tube on a alors 1.10^6 germes par ml.
Un tube sans antiseptique permet d'effectuer un dénombrement des microorganismes effectivement introduits dans le test et permet de s'assurer de la vitalité de la souche.
Dénombrement par la méthode de dilution-incorporation et incubation à l'étuve pendant 48 heures à 37°C.
La concentration minimale inhibitrice est la plus petite quantité de produit qui empêche le développement microbien (jugé à l'oeil) ;elle est exprimée en microgramme de chlorhexidine base par millilitre. […]

[2] = Acute toxicity, oral LD50; type: in vivo
From the text: (§1) La toxicité de ce nouveau sel de CHX a été vérifiée comparativement au tensioactrf sous forme acide de départ, au tensioactif neutralisé par l'ion sodium, à la CHX base et à l'association tensioactif neutralisé par l'ion sodium + CHX base, car il est bien connu que la toxicité d'une molécule peut être potentialisée par la présence d'un tensioactif.
(§2) Deux tests ont été utilisés : • 1- l'évaluation de la DL 50 par voie orale, • 2- l'évaluation de la DL 50 par voie intra-péritonéale.

[3] = Acute toxicity, intraperitoneal LD50; type: in vivo
From the text: as §1, §2

Solubility (qualitative) = conditions: water
[4] = Foaming power (10 inversions of a stoppered cylinder); type: physicochemical; conditions: 50 ml of a 10 % active matter solution, 100 ml cylinder, 23°C
Protocol: _Le_pouvoir moussant de l'acide éthoxycarboxylique et de l'éthoxycarboxylate de CHX a été vérifié, et ce comparativement.
A cet effet, on prépare une solution de tensioactif à 10% de matière active. On prélève 50 ml de cette solution que l'on introduit dans une éprouvette de 100 ml (diamètre intérieur 26 mm et hauteur 235 mm). On bouche hermétiquement cette éprouvette et on la soumet à 10 retournements successifs pour provoquer la formation de mousse. Cette manipulation se fait à 23°C (température de la solution).

[5] = parameters: species or system cobaye; conditions: in vivo
From the text: On peut penser que cette différence de pouvoir moussant est apportée par le solvant propylèneglycol […] Tolérance : On s'est contenté de vérifier la bonne tolérance cutanée et oculaire du tensioactif acide éthoxycarboxylique et du nouveau sel de CHX de cet exemple, pour bien démontrer la parfaite inocuité de ce nouveau produit.
. tolérance cutanée cobaye :
On voit d'après ces résultats que cette tolérance est meilleure sur ce test pour le nouveau sel de CHX que pour l'acide éthoxycarboxylique. La différence d'épaisseur de pli de peau mesuré le 4ème jour d'application quotidienne est de 0,23 contre 1,2 mm, l'érythème de 1,4 contre 4.

[6] = parameters: species or system lapin; conditions: in vivo
From the text: . tolérance cutanée lapin :

Staphylo-coque aureus = test: Antibacterial properties (Tableau I), Staphylococcus aureus; type: cell-based
From the text: (§3) Des expérimentations ont été conduites afin de vérifier si ce nouveau sel de CHX possédait une bonne activité antiseptique comparativement au digluconate de CHX, sel de CHX des plus connus et largement utilisé et ce comparativement à l'acide AEC, ce dernier pouvant avoir par lui-même des propriétés antiseptiques.
(§4) L'activité de ces trois produits a été testée sur quatre germes […] et il a été constaté que non seulement on obtenait une activité voisine de celle du digluconate de CHX, mais que de plus, cette activité était plus importante dans trois cas (voir tableau I).

[7] = system: Escherichia coli ATCC 10536; test: Antibacterial properties (Tableau I), Escherichia coli; type: cell-based
From the text: as §3, §4

[8] = system: Pseudomonas aeruginosa A 22; test: Antibacterial properties (Tableau I), Pseudomonas aeruginosa; type: cell-based
From the text: as §3, §4

Candida albicans = test: Antibacterial properties (Tableau I), Candida albicans; type: cell-based
From the text: as §3, §4

[9] = in vivo

N=C(NCCCCCCNC(=N)NC(=N)Nc1ccc(Cl)cc1)NC(=N)Nc1ccc(Cl)cc1 [Digluconate de CHX, Digluconate de chlorhexidine]
MIC ([1]; A22, aqueous solutions with 3% alkyl éthoxycarboxylate de chlorhexidine, read-out: CMI): 8.75 µg/mL | MBC ([1]; A22, sub-culture on neutralising medium, read-out: CMB): 8.75 µg/mL

[H]/N=C(\N/C(=N/[H])NCCCCCCNC(=N)NC(=N)Nc1ccc(Cl)cc1)Nc1ccc(Cl)cc1 [chlorhexidine base, 1,6-di-(p-chlorophényl-biguanido) hexane]
DL 50 voie orale [2]: pas de mortalité | LD50 ([3]; in vivo, ip, read-out: DL 50 voie intrapérito-néale): 47 to 100 mg/kg | solubilité dans l'eau (Solubility (qualitative)): insoluble dans l'eau

Alkyl éthoxycarboxy-late de sodium
DL 50 voie orale [2]: 7,5 g/kg

Alkyl éthoxycarboxylate de chlorhexidine [AEC de CHX]
Pouvoir moussant (mousse) [4]: 16 mL | différence d'épaisseur de pli de peau [5]: 0,23 mm | érythème [5]: 1,4 | indice d'irritation primaire [6]: 0,25 | CMI ([1]; aqueous solutions with 3% alkyl éthoxycarboxylate de chlorhexidine): 8 microgramme de chlorhexidine base par millilitre | CMB ([1]; sub-culture on neutralising medium): 8 microgramme de chlorhexidine base par millilitre

alkyl éthoxycarboxylique acide [AEC acide]
Propriétés antibactériennes (Staphylo-coque aureus): 1,56 mg/ml | Propriétés antibactériennes [7]: 12,5 mg/ml | Propriétés antibactériennes [8]: 6,2 mg/ml | Propriétés antibactériennes (Candida albicans): 50 mg/mL | Pouvoir moussant (mousse) [4]: 26 mL | différence d'épaisseur de pli de peau [5]: 1,2 mm | érythème [5]: 4 | indice d'irritation primaire [6]: 0,75 | DL 50 voie intrapérito-néale [3]: 0,5 g/kg | tolérance oculaire [9]: la mieux tolérée
